Assay results published in patent publication US20140005163A1 (NOVARTIS AG, priority 2010, published 2014).
≈ marks a conversion by molar mass, not a printed value.

Columns and labels:
[1] = system: PKB Ser473 phosphorylation in Rat1-myr-HA-p110 delta cells; test: Reverse protein array assay, PKB Ser473 phosphorylation in Rat1-myr-p110 delta cells; assay type: cell-based; conditions: read-out: p-PKB IC50
Summary of the method: (§1)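 After at least 20 h of culture, the p110 isoform-transfected Rat1 lines receive compound in an 8-step dilution series, keeping DMSO at 0.2%, for 30 minutes. Cells are then lysed and lysates arrayed on chips for fluorescence detection of Ser473-phosphorylated PKB.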

[2] = system: PKB Ser473 phosphorylation in Rat1-myr-HA-p110 beta cells; test: Reverse protein array assay, PKB Ser473 phosphorylation in Rat1-myr-p110 beta cells; assay type: cell-based; conditions: 0.5 h, pAkt Ser473, 30 minutes incubation, read-out: p-PKB IC50
Summary of the method: as §1

PI3K alpha = molecular target: T1, PI3K alpha (Homo sapiens, UniProt P42336); test: PI3K alpha kinase assay (Kinase-Glo luminescence); assay type: biochemical
T1 construct: p85(iSH2) fusion partner (see partner chain) (N); His tag (C); made in house; host or cells: baculovirus; Tn5 (Trichoplusia ni) or TiniPro insect cells
Summary of the method: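 Luminescent ATP-depletion assay (Kinase-Glo) with 10 nM PI3Kα and 10 μg/mL phosphatidylinositol as lipid substrate at 1 μM ATP. Incubation lasts 60 min at room temperature.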

PI3K gamma = molecular target: T2, PI3K gamma (Homo sapiens, UniProt P48736); test: PI3K gamma kinase assay (Kinase-Glo luminescence); assay type: biochemical
T2 construct: His tag (C); made in house; host or cells: baculovirus (pVL1393); Tn5 or TiniPro insect cells; construct from Roger Williams lab, MRC LMB
Description: (§2) In a more preferred assay, the kinase reaction is performed in a final volume of 10 μL per well of a low volume non binding CORNING, 384 well black plate (Cat. No. #3676). The final concentrations of ATP and phosphatidyl inositol (PI) in the assay are 1 μM and 10 μg/mL respectively. The reaction is started by the addition of ATP.
(§3) The components of the assay are added per well as follows:
(§4) […] in 90% DMSO per well, in columns 1-20, 8 concentrations (1/3 and 1/3.33 serial dilution step) in single. • Low control: […] of 90% DMSO in half the wells of columns 23-24 (0.45% in final). • High control: […] of reference compound (e.g. compound of Example 7 in WO 2006/122806) in the other half of columns 23-24 (2.5 μM in final). • Standard: […] of reference compound as just mentioned diluted as the test compounds in columns 21-22 • 20 mL ‘buffer’ are prepared per assay: • 200 μL of 1M TRIS HCl pH7.5 (10 mM in final) • 60 μL of 1M MgCl2 (3 mM in final) • 500 μL of 2M NaCl (50 mM in final) • 100 μL of 10% CHAPS (0.05% in final) • 200 μL of 100 mM DTT (1 mM in final) • 18.94 mL of nanopure water • 10 mL ‘PI’ are prepared per assay: • 200 μL of 1 mg/ml L-alpha-Phosphatidylinositol (Liver Bovine, Avanti Polar Lipids Cat. No. 840042C MW=909.12) prepared in 3% OctylGlucoside (10 μg/ml in final) • 9.8 mL of ‘buffer’ • 10 mL ‘ATP’ are prepared per assay: • 6.7 μL of 3 mM stock of ATP giving a final concentration of 1 μM per well • 10 mL of ‘buffer’ • 2.5 mL of each PI3K construct are prepared per assay in ‘PI’ with the following final concentration: • 10 nM PI3K alfa EMV B1075 • 25 nM beta EMV BV949 • 10 nM delta EMV BV1060 • 150 nM gamma EMV BV950 • 5 μL of ‘PI/PI3K’ are added per well. • 5 μl ‘ATP’ are added per well to start the reaction. • The plates are then incubated at room temperature for 60 minutes (alfa, beta, delta) or 120 minutes (gamma). • The reaction is terminated by the addition of 10 μL Kinase-Glo (Promega Cat. No. #6714). • The assay plates are read after 10 minutes in Synergy 2 reader (BioTek, Vermont USA) with an integration time of 100 milliseconds and sensitivity set to 191. • Output: The High control is around 60'000 counts and the Low control is 30'000 or lower • This luminescence assay gives a useful Z′ ratio between 0.4 and 0.7
(§5) IC50 is determined by a four parameter curve fitting routine that comes along with “excel fit”. […] Alternatively, IC50 values are calculated using idbsXLfit model 204, which is a 4 parameter logistic model.

PI3K delta = molecular target: T3, PI3K delta (Homo sapiens, UniProt O00329); test: PI3K delta kinase assay (Kinase-Glo luminescence); assay type: biochemical
T3 construct: for the full-length p110-d subunit are generated and fused by overlapping PCR; p85(iSH2) fusion partner (see partner chain) (N); His tag (C); made in house; host or cells: baculovirus; Tn5 (Trichoplusia ni) or TiniPro insect cells
Summary of the method: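 Inhibition is derived from luminescent detection of unconsumed ATP. The reaction runs for one hour at ambient temperature and contains the δ isoform fusion protein, phosphatidylinositol substrate and low (1 μM) ATP. Eight compound concentrations are tested in single, and a 4-parameter logistic model is used to calculate IC50.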

[3] = system: PKB Ser473 phosphorylation in Rat1-myr-HA-p110 alpha cells; test: Reverse protein array assay, PKB Ser473 phosphorylation in Rat1-myr-p110 alpha cells; assay type: cell-based; conditions: 0.5 h, pAkt Ser473, 30 minutes compound incubation, read-out: p-PKB IC50
Summary of the method: as §1

Solubility at pH 6.8 = assay type: physicochemical; conditions: pH 6.8, aqueous buffer, thermodynamic from solid; read-out: solubility
Source text: The physicochemical properties of relevance for the absorption of the compound, such as the solubility and the membrane permeability, especially at a pH close to neutral pH can be measured using the procedure as described by L. ZHOU et al. in JOURNAL OF PHARMACEUTICAL SCIENCES, VOL. 96, NO. 11, p. 3052-3071 (2007) for the solubility at pH 6.8 and the procedure as described by F. Wohnsland and B. Faller in Journal of Medicinal Chemistry Vol 44, p. 923-930 (2001) for the Parallel Artificial Membrane Permeability Assay (PAMPA) at pH 6.8.

PI3K beta = molecular target: T4, PI3K beta (Homo sapiens, UniProt P42338); test: PI3K beta kinase assay (Kinase-Glo luminescence); assay type: biochemical
T4 construct: for the full-length p110-b subunit are generated and fused by overlapping PCR; p85(iSH2) fusion partner (see partner chain) (N); His tag (C); made in house; host or cells: baculovirus; Tn5 (Trichoplusia ni) or TiniPro insect cells
Description: as §2, §3, §4
PI3Kβ BV-949 p85(iSH2)-Gly Linker-p110b(Full-Length)-C-Term his Tag
as §5

mTOR = molecular target: T5, mTOR (Homo sapiens, UniProt P42345); test: Biochemical assay for m-TOR by TR-FRET; conditions: 8 μM ATP, 400 nM GFP-4EBP1, 0.5 nM mTOR
T5 construct: purchased Invitrogen Corporation (Carlsbad/CA, USA) PV4753
Summary of the method: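 TR-FRET read-out: Tb-labelled anti-p4EBP1 pThr46 antibody (0.5 nM), added in EDTA to stop the reaction, detects phosphorylated GFP-4EBP1 after 15 min. Kinase step used 0.5 nM mTOR, 400 nM substrate, 8 μM ATP, MnCl2-containing HEPES buffer pH 7.5, room temperature.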

[4] = system: S6 Ribosomal Protein phosphorylation Ser235/236 in TSC1 null mouse embryo fibroblast (MEF) cells; test: Reverse protein array assay, S6 Ribosomal Protein phosphorylation Ser235/236 in TSC1 null MEF cells; assay type: cell-based; conditions: 1 h, pS6 ribosomal protein Ser235/236, 60 minutes incubation, read-out: p-S6 IC50
Summary of the method: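 TSC1−/− MEFs, seeded and held ≥20 h at 37 °C/5% CO2, were exposed to 8-step serial compound dilutions (0.02% DMSO final; DMSO vehicle control) for 60 min at 37 °C. Cells were then lysed on ice for 10 min and lysates spotted onto reverse protein array chips.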

T4 sequence (P42338 with tags, fused parts or gaps limits assumed): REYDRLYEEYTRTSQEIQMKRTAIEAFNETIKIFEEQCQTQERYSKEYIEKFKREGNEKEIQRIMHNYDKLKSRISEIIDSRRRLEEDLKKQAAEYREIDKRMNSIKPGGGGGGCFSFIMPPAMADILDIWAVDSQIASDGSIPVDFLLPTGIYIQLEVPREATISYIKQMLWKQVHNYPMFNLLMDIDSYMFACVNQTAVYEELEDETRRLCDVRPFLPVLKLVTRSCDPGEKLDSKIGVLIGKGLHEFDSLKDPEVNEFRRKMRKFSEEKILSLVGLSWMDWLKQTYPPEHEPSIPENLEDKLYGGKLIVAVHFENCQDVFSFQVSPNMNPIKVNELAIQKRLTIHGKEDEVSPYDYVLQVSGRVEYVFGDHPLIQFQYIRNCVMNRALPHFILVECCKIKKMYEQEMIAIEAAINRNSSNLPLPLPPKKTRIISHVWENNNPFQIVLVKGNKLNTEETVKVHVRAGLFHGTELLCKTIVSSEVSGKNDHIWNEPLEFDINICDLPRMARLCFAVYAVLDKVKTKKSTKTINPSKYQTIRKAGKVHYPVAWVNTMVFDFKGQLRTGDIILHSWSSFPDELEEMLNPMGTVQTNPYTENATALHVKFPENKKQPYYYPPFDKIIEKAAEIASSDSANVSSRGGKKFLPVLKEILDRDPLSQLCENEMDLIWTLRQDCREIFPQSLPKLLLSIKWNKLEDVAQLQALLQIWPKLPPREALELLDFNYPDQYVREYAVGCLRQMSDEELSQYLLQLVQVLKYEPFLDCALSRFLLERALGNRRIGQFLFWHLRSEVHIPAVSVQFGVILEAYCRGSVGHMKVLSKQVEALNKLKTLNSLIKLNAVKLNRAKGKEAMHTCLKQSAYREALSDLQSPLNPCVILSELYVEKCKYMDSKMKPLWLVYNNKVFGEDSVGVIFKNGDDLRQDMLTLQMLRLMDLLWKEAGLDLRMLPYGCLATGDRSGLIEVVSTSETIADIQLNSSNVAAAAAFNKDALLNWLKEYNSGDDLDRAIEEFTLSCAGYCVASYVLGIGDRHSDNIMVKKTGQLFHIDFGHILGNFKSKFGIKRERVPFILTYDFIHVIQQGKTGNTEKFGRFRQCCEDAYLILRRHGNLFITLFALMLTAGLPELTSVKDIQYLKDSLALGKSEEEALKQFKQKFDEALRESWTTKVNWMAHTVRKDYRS
T5 sequence (P42345 1360-2549 limits assumed): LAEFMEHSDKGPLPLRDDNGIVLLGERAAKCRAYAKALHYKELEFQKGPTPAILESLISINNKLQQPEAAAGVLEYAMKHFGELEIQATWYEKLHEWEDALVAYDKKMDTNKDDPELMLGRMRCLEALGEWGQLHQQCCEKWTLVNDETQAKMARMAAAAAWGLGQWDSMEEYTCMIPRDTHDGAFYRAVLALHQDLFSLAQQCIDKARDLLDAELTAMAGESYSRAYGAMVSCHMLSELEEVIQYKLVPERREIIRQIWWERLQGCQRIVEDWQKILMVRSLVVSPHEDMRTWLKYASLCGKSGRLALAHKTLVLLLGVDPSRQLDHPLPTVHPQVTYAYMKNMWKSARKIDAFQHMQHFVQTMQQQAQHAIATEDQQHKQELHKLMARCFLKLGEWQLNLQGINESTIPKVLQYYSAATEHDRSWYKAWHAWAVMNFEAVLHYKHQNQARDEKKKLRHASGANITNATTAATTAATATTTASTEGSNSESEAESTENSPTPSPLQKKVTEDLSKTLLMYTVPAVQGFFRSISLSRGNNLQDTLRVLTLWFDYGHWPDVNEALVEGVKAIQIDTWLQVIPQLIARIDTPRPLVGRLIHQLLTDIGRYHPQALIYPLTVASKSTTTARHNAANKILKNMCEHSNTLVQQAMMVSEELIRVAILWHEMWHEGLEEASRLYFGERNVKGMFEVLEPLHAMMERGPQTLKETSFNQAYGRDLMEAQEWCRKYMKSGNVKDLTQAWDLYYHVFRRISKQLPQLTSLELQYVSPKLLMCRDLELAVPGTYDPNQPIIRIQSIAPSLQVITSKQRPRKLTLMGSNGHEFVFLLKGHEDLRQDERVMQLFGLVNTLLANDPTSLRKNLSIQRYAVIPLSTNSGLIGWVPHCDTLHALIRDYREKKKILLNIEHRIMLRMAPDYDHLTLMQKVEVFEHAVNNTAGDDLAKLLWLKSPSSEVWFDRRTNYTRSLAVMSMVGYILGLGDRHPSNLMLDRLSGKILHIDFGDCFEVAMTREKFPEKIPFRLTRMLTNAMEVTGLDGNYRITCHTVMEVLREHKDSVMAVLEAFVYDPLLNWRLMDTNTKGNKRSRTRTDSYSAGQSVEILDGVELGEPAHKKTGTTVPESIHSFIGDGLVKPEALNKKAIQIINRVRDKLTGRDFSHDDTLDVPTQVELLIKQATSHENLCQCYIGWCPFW
T3 sequence (O00329 with tags, fused parts or gaps limits assumed): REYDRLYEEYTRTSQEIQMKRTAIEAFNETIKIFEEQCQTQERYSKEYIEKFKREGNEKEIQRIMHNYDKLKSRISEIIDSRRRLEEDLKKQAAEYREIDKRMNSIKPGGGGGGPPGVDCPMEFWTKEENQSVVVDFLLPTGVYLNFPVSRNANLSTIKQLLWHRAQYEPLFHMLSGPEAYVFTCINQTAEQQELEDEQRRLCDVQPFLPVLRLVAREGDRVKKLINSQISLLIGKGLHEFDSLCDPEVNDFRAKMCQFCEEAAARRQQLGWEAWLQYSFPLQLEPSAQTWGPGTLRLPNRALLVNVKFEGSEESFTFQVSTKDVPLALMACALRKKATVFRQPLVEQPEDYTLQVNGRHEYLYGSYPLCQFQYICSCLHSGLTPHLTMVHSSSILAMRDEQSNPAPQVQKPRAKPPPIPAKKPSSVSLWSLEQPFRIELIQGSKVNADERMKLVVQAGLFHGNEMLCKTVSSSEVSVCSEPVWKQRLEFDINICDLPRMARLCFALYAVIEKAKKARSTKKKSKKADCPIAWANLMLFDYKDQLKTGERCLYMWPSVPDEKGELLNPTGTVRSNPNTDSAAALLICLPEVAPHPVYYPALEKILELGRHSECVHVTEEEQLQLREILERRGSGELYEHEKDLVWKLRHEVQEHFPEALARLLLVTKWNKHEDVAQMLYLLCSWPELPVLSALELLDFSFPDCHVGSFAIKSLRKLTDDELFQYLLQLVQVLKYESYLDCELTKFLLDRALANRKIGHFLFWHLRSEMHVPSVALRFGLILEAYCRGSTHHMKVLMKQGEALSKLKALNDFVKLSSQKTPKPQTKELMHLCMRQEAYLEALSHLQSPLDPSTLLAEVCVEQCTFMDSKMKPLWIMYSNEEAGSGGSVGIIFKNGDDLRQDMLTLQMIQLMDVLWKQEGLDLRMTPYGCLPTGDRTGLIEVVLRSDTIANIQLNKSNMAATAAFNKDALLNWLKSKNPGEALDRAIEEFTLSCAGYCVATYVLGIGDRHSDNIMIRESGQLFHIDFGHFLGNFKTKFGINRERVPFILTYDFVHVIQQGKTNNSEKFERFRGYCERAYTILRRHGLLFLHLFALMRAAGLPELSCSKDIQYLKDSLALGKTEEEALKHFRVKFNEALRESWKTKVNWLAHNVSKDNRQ
T2 sequence (P48736 144-1102 limits assumed): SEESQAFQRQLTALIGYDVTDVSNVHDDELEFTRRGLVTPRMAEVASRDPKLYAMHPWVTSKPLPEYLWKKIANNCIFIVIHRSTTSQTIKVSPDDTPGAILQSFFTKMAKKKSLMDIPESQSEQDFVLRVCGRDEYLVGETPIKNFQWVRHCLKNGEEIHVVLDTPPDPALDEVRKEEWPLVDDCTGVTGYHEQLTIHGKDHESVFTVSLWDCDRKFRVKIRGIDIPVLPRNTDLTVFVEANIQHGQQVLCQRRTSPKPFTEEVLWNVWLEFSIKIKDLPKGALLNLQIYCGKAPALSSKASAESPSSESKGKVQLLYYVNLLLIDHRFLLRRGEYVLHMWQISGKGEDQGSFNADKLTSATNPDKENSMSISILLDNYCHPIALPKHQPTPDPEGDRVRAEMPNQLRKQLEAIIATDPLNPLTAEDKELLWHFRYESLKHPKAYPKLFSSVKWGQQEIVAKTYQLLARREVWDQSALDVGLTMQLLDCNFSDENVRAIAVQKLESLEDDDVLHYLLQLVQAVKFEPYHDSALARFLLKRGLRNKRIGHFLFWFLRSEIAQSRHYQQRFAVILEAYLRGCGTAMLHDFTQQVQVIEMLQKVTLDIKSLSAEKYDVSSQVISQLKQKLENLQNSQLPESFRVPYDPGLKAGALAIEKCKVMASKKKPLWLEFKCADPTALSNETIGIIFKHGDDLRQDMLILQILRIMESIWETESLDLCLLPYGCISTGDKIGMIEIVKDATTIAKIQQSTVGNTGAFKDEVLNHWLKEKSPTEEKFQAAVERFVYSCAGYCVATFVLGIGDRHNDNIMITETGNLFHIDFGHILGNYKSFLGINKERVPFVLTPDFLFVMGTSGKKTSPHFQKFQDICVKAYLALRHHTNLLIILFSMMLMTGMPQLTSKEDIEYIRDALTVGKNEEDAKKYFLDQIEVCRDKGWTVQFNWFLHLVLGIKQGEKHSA

SMILES	IC50 [1]	IC50 [2]	IC50 (PI3K alpha)	IC50 (PI3K gamma)	IC50 (PI3K delta)	IC50 [3]	solubility (Solubility at pH 6.8)	IC50 (PI3K beta)	IC50 (mTOR)	IC50 [4]
CCOc1ccc(-c2ccc3ncc4c(c3c2)n(-c2cc(C(F)(F)F)nn2C)c(=O)n4C)cn1 [Example 3.2, 8-(6-Ethoxy-pyridin-3-yl)-3-methyl-1-(2-methyl-5-trifluoromethyl-2H-pyrazol-3-yl)-1,3-dihydro-imidazo[4,5-c]quinolin-2-one]	473 nM	138 nM	78 nM	559 nM	394 nM	120 nM				
CCOc1ccc(-c2ccc3ncc4c(c3c2)n(-c2c(C)nn(CCOC)c2C)c(=O)n4C)cn1 [Example 3.11, 8-(6-Ethoxy-pyridin-3-yl)-1-[1-(2-methoxy-ethyl)-3,5-dimethyl-1H-pyrazol-4-yl]-3-methyl-1,3-dihydro-imidazo[4,5-c]quinolin-2-one]	772 nM	510 nM	207 nM		228 nM	237 nM	> 473 µg/mL	473 nM		
Cc1nn(C)cc1-n1c(=O)n(C)c2cnc3ccc(-c4ccc(OCCOCc5ccccc5)nc4)cc3c21 [Example 19, 8-[6-(2-Benzyloxy-ethoxy)-pyridin-3-yl]-1-(1,3-dimethyl-1H-pyrazol-4-yl)-3-methyl-1,3-dihydro-imidazo[4,5-c]quinolin-2-one]			482 nM	971 nM	468 nM					
Cc1nn(C)cc1-n1c(=O)n(C)c2cnc3ccc(-c4cncc(N)c4)cc3c21 [Example 45]				283 nM						
CCOc1cc(-c2ccc3ncc4c(c3c2)n(-c2c(C)nn(CCOC)c2C)c(=O)n4C)cnc1C [Example 85.2, 8-(5-Ethoxy-6-methyl-pyridin-3-yl)-1-[1-(2-methoxy-ethyl)-3,5-dimethyl-1H-pyrazol-4-yl]-3-methyl-1,3-dihydro-imidazo[4,5-c]quinolin-2-one]	224 nM	516 nM	46 nM		57 nM	187 nM	> 487 µg/mL	139 nM		
CCn1cc(-n2c(=O)n(C)c3cnc4ccc(-c5cnc(COC)c(NC)c5)cc4c32)c(C)n1 [Example 160.2, 1-(1-Ethyl-3-Methyl-1H-pyrazol-4-yl)-8-(6-methoxymethyl-5-methylamino-pyridin-3-yl)-3-methyl-1,3-dihydro-imidazol[4,5-c]quinolin-2-one]			39 nM		16 nM		237 µg/mL (≈ 518 µM)	130 nM	25 nM	
COCCn1nc(C)c(-n2c(=O)n(C)c3cnc4ccc(-c5cncc(NC(C)C)c5)cc4c32)c1C [Example 177.2, 8-(5-Isopropylamino-pyridin-3-yl)-1-[1-(2-methoxy-ethyl)-3,5-dimethyl-1H-pyrazol-4-yl]-3-methyl-1,3-dihydro-imidazo[4,5-c]quinolin-2-one]	559 nM	494 nM	70 nM		70 nM	124 nM	479 µg/mL (≈ 986 µM)	327 nM		
CCc1ncc(-c2ccc3ncc4c(c3c2)n(-c2cn(C)nc2C)c(=O)n4C)cc1OC(C)C [Example 186, 1-(1,3-Dimethyl-1H-pyrazol-4-yl)-8-(6-ethyl-5-isopropoxy-pyridin-3-yl)-3-methyl-1,3-dihydro-imidazo[4,5-c]quinolin-2-one]	27 nM	34 nM				< 5 nM	8 µg/mL (≈ 17.5 µM)		56 nM	1.02 nM
Cn1cc(-n2c(=O)n(C)c3cnc4ccc(-c5cncc(C(C)(C)O)c5)cc4c32)c(Cl)n1 [Example 215.3, 1-(3-Chloro-1-methyl-1H-pyrazol-4-yl)-8-[5-(1-hydroxy-1-methyl-ethyl)-pyridin-3-yl]-3-methyl-1,3-dihydroimidazo[4,5-c]quinolin-2-one]	22 nM	16 nM				13 nM	21 µg/mL (≈ 46.8 µM)		7 nM	1 nM
Cc1nn(C)cc1-n1c(=O)n(C)c2cnc3ccc(-c4cncc(CN)c4)cc3c21 [Example 230, 8-(5-Aminomethyl-pyridin-3-yl)-1-(1,3-dimethyl-1H-pyrazol-4-yl)-3-methyl-1,3-dihydro-imidazo[4,5-c]quinolin-2-one]			100 nM		437 nM		> 399 µg/mL	344 nM	465 nM	
Cc1nn(C)cc1-n1c(=O)n(C)c2cnc3ccc(-c4cncc(CNS(C)(=O)=O)c4)cc3c21 [Example 232]			44 nM		60 nM		83 µg/mL (≈ 174 µM)	101 nM	56 nM	
